Assays:
[1] = test system: immune infiltrate of MCA205 tumors; experiment: Immunophenotyping of the tumor immune infiltrate by flow cytometry; format: in vivo, C57B1/6 mice; conditions: for Density of CD45+ leukocytes in the tumor: day 11 post-chemotherapy
Protocol: 3 or 11 days post-chemotherapy (d3 or d11), mice were euthanized and the tumors were withdrawn and placed in gentleMACS C tubes (ref 130-096-334 from Miltenyi BiotecTM) previously filled with 1 ml of DMEM or RPMI medium, and immediately put on ice. […] Then, cells were stained with a live dead dye (ref L34959 from ThermoFisher ScientificTM) and an FCblock receptor targeting antibody. For the surface stainings, several anti-mouse fluorochrome-coupled antibodies were employed, that were for 1) myeloid cells “staining 1”: anti-CD45 APC-Fire750 (clone 30E-11, ref 130154 BiolegendTM), anti-Ly-6G PE (clone 1A8, ref 551461 BDTM), anti-Ly-6C FITC (clone AL-21, ref 553104, BDTM), anti-CD11b V450 (clone M1/70, ref 560455 BDTM), anti-CD11c PE-Cy7 (clone HL3, ref 558470 BDTM), anti-CD80 PerCP-Cy5.5 (16-10A1, ref 104722 BiolegendTM), and anti-MHC-II APC (clone M5/114.15.2, ref 107614 BiolegendTM) 2) T-cells “staining 2”: anti-CD3 APC (clone 17A2, ref 17-0032-82 eBioscienceTM), anti-CD8 PE (clone 53-6.7, ref 553032 BDTM), anti-CD4 PerCP-Cy5.5 (clone RM4-5, ref 45-0042-82 eBioscienceTM), anti-CD25 PE-Cy7 (clone PC61.5, ref 25-0251-82 InvitrogenTM), anti-ICOS BV421 (clone 7E.17G9, ref 564070 BDTM) and anti-PD-1 APC-Fire750 (clone 29F.1Al2, ref 135240 BiolegendTM) 3) PD-L1 expressing-cells “staining 4”: anti-CD45 AlexaFluor647 (clone 30E-11, ref 103-124 BiolegendTM), anti-PD-L1 BV421 (clone MIHS, ref 564716 BDTM) and anti-PD-L2 PE-Dazzle594 (clone TY25, ref 107215 BiolegendTM) 4) NKT cells “staining 5”: anti-CD3 FITC (clone 17A2, ref 11-00-32-82 eBioscienceTM) and anti-NK1.1 PerCP-Cy5.5 (clone PK136, ref 551114 BDTM). After the fixation and permeabilization of the cells (thanks to the Cytofix/Cytoperm kit, ref 554714 BDTM for stainings 1, 3, 4 and 5; and with the Foxp3/Transcription Factor kit, ref 00-5523-00 eBioscienceTM for staining 2), intracellular stainings were performed using for “staining 2”: anti-FoxP3 FITC (clone FJK-16s, ref 11-5773-82 eBioscienceTM) and for “staining 3”: anti-IFNg APC (clone XMG1.2, ref 505-810 BiolegendTM), anti-TNFα APC-Cy7 (clone MP6-XT22, ref 506344 BiolegendTM) and anti-IL-2 PE-Dazzle 594 (clone JES6-5H4, ref 503-840 BiolegendTM). Finally, cells were resuspended in FACS buffer and analyzed on a flow cytometer BD LSR II.

[2] = test system: PD-L1; experiment: PD-L1 expression on CD45+/- tumor infiltrating cells; format: in vivo, C57B1/6 mice
Excerpt: WT 9 weeks old C57B1/6 mice were subcutaneously injected with MCA205 WT fibrosarcoma cells. When tumors became palpable, mice underwent two days of fasting (d-2 to d0). HC treatment in drinking water began the day after (d-1), followed by chemotherapy with MTX (d0). 11 days post-chemotherapy, mice were sacrified and tumors were collected, dissociated, filtrated and stained with panel 3 antibodies. The results are represented as percentage among viable cells. […] The data shown represent a pool of two independent experiments sharing all the groups. Statistical analysis were realized using ordinary one-way ANOVA. ****p<0.001, ***p<0.005, **p<0.01, *p<0.05.
3 or 11 days post-chemotherapy (d3 or d11), mice were euthanized and the tumors were withdrawn and placed in gentleMACS C tubes (ref 130-096-334 from Miltenyi Biotec™) previously filled with 1 ml of DMEM or RPMI medium, and immediately put on ice. After a mechanical (with scissors) and chemical digestion (thanks to the tumor dissociation kit and the gentleMACS Octo Dissociator, ref 130-096-730 and 130-096-427, respectively, from Miltenyi Biotec™), tumors were filtered (using MACS smartstrainers […], ref 130-110-916 from Miltenyi Biotec™), washed twice with PBS and distributed in a 96-wells round bottom plate.
Then, cells were stained with a live dead dye (ref L34959 from ThermoFisher Scientific™) and an FCblock receptor targeting antibody. […] Finally, cells were resuspended in FACS buffer and analyzed on a flow cytometer BD LSR II.

[3] = day 11 post-MTX, data not shown

Row | Compound | Increase in the density of total CD3+ and CD8+ T cell infiltrate ([1]; combined with MTX, data not shown) | Myeloid infiltrate ([1]; day 3 post-chemotherapy (MTX), data not shown) | Granulocyte infiltration (Ly6C+Ly6Ghi) [1, 3] | Monocytic dendritic cell subpopulation with activation markers (Ly6G-Ly6ChiCD11b+CD11c+CD80+MHC-IIhi) [1, 3] | Density of CD45+ leukocytes in the tumor ([1]; MTX-treated animals that received HC) | Effect of co-treatment on MTX-induced PD-L1 upregulation ([2]; FIG. 8A-D) | Density of CD45+ leukocytes in the tumor ([1]; MTX-treated cancers) | PD-L1 on non-leukocytes from the cancer (CD45- cells, mostly malignant cells) ([2]; MCA205 tumor-bearing mice treated with MTX (FIG. 8A, B)) | PD-L1 in leukocytes expressing CD11b ([2]; MCA205 tumor-bearing mice treated with MTX (FIG. 8C, D)) | Percentage of CD45- PD-L1+ cells ([2]; MTX alone or in combination with NF or HC, 11 days post-chemotherapy (FIG. 8A)) | Mean fluorescent intensity of PD-L1 on CD45- cells ([2]; MTX alone or in combination with NF or HC, 11 days post-chemotherapy (FIG. 8B)) | Percentage of CD45+ PD-L1+ cells ([2]; MTX alone or in combination with NF or HC, 11 days post-chemotherapy (FIG. 8C)) | Mean fluorescent intensity (D) of PD-L1 on CD45- cells ([2]; MTX alone or in combination with NF or HC, 11 days post-chemotherapy (FIG. 8D))
1 | O=C(O)CC(O)(C(=O)O)C(O)C(=O)O (stereo not shown) [HC, hydroxycitrate] | neither HC nor spermidine | no major increments | increase | increase | more so | not altered |  |  |  |  |  |  | 
2 | O=C1c2c(O)ccc(O)c2C(=O)c2c(NCCNCCO)ccc(NCCNCCO)c21 [MTX, mitoxantrone] |  |  |  |  |  |  | higher density | upregulation | upregulation | increases | increases | increases | increases
